Test results reported in US20220204539A1, “CD73 INHIBITORS” (BioArdis LLC, priority 2019, published 2022).

Tests used:
[1] = target: T1, Recombinant Human 5′-Nucleotidase (CD73) (Homo sapiens, UniProt P21589); experiment: CD73 Enzyme Assay; type: biochemical; details: human CD73 0.5 nM, AMP 30 μM, PiColorLock phosphate detection; read-out: Potency (IC50, CD73 enzyme assay)
T1 construct: CHO derived CD73 (Trp27-Lys547), with a C-terminal 6-His tag; 6-His (C); purchased R&D 5795-EN; host or cells: CHO
T1 sequence (P21589 27-547): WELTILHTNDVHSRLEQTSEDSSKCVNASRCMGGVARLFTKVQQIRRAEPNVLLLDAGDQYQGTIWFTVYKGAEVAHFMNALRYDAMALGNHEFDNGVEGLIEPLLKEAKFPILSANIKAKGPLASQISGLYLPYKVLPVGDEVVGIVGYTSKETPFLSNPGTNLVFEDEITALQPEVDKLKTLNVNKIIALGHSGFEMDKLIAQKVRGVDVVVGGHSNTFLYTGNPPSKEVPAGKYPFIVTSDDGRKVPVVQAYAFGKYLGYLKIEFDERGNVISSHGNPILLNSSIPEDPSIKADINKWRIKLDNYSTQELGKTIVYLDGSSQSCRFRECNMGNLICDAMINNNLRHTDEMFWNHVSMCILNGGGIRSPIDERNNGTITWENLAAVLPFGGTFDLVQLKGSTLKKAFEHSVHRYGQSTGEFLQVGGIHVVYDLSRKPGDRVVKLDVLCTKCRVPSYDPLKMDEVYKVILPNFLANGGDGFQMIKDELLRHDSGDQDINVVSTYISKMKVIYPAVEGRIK
Excerpt: Soluble recombinant CD73 catalyzes the conversion of adenosine monophosphate (AMP) to adenosine and inorganic phosphate. The phosphate detection reagent, PiColorLock™ (Innova Bioscience, Cat #303-0125) is based on the change in absorbance of the dye malachite green in the presence of inorganic phosphate (Pi) and this property can be exploited to measure any enzyme that generates Pi. Recombinant Human 5′-Nucleotidase (CD73) (R&D #5795-EN, CHO derived CD73 (Trp27-Lys547), with a C-terminal 6-His tag) was used in the enzymatic assay. This assay was run in a 384-well plate format (Corning® NBS™ 384 well plates, Cat #3640). The basic assay procedure involves two steps: 1) Enzyme reaction: The CD73 enzyme (R&D #5795-EN) is incubated in the presence or absence of compounds. AMP (sigma, cat #01930) is added to start the […] reaction. 2) Detection step: Gold mix is added to the assay system, then stabilizers are added. After incubation the absorbance of the solution is read at OD 635 nm. The recorded OD signal is proportional to the enzyme activity.
Briefly, 25 μl human CD73 (0.5 nM final concentration) in the enzymatic buffer solutions (20 mM Tris, 25 mM NaCl, 1 mM MgCl2, pH 7.5, 0.005% Tween-20) were mixed with various concentrations of the test compound (dissolved in 100% DMSO). These solutions were incubated for 15 min at 25° C., and subsequently 25 μl AMP (30 μM final concentration) was added to start the reaction. The final reaction mixture of enzyme-substrate-compound was incubated for 20 min at 37° C. Meanwhile ‘Gold mix’ was prepared shortly before use by adding 1/100 vol. of accelerator to the PiColorLock™ Gold reagent. 12 μL/well of the ‘Gold mix’ was added to assay plate containing 50 μL enzyme reaction buffer and incubated at 25° C. for 5 min. 5 μL/well stabilizer was added to the assay plate and incubated at 25° C. for 30 min. The absorbance of the well solutions was measured at 635 nm on a Spark 10M instrument (TECAN).
The percent (%) inhibition at each concentration of a compound was calculated relative to the OD value in the Max and Min control wells contained within each assay plate. The Max control wells contained enzyme and substrate as 0% inhibition, and the M control wells only contained substrate without enzyme as 100% inhibition. The concentrations and percent inhibition values for a test compound are plotted and the concentration of the compound required to achieve 50% inhibition (IC50) was determined with a four-parameter logistic dose response equation.

[2] = target: T2, Cell surface CD73 of U87 MG human glioblastoma cells (Homo sapiens, UniProt P21589); experiment: CD73 Cellular Assay; type: cell-based; details: 5000 cells per well, 30 μM AMP substrate, read-out: Potency (IC50, CD73 cellular assay)
T2 construct: Cell surface CD73 catalyzes the conversion of adenosine monophosphate (AMP) to adenosine and inorganic phosphate; endogenous in cells; host or cells: U87 MG human glioblastoma cells
T2 sequence (P21589 27-549): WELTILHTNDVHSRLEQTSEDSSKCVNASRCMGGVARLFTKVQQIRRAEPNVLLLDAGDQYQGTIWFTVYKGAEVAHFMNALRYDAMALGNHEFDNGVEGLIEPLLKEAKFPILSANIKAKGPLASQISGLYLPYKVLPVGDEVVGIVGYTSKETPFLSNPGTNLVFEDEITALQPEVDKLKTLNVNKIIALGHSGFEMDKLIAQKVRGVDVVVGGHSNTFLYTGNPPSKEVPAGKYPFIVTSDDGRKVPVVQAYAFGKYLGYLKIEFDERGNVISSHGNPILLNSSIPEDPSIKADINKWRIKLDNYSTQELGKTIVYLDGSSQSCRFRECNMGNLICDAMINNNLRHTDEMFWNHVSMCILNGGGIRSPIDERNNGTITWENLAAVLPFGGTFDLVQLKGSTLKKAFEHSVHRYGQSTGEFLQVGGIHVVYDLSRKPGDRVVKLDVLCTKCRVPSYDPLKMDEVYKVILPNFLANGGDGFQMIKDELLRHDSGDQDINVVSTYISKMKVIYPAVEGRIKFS
Description: Cell surface CD73 catalyzes the conversion of adenosine monophosphate (AMP) to adenosine and inorganic phosphate. U87 MG human glioblastoma cells express high level of CD73. Cells are treated with compounds in a 96-well assay plate and supernatants are collected into a 384-well detection plate. The concentration of inorganic phosphate (Pi) in the supernatants is determined using the phosphate detection reagent, PiColorLock™ (Innova Bioscience, Cat #303-0125) following the manufacturer's instructions.
Briefly, on the day of the assay, U87 MG cells were harvested and resuspended in assay buffer which consisted of 20 mM HEPES, pH=7.4, 137 mM NaCl, 5.4 mM KCl, 1.3 mM CaCl2, 4.2 mM NaHCO3 and 0.1% glucose. To test the effect of compounds on cellular CD73 enzymatic activity, 500 nL/well of compounds dissolved in DMSO were added to a 96-well TC-treated microplate (Corning #3599). Next, 80 μL/well of U87 MG cells in assay buffer were added to assay plate. After 30 minutes of incubation in an atmosphere of 5% CO2 at 37° C., 20 μL/well of 150 μM AMP (Adenosine 5′-monophosphate monohydrate, Sigma, Cat #01930) in assay buffer was added to assay plate. Final assay conditions consisted of 5000 cells per well in 0.5% DMSO and 30 μM AMP substrate. After 50 minutes of incubation in an atmosphere of 5% CO2 at 37° C., 50 μL/well of supernatant was transferred to the 384-well detection plate (Corning® NBS™ 384 well plates, Cat #3640). Meanwhile “Gold mix” was prepared shortly before use by adding 1/100 volume of accelerator to the PiColorLock™ Gold reagent. 12 μL/well of the “Gold mix” was added to detection plate containing 50 μL/well of supernatant and incubated at 25° C. for 5 minutes. 5 μL/well stabilizer was added to the detection plate and incubated at 25° C. for 30 minutes. The absorbance at 635 nm was measured on a Spark 10M instrument (TECAN). The percent (%) inhibition at each concentration of a compound was calculated relative to the OD value in the Max and Min control wells contained within each assay plate. The Max control wells contained cells and substrate as 0% inhibition, and the Min control wells only contained cells as 100% inhibition. The concentrations and percent inhibition values for a test compound are plotted and the concentration of a the compound required to achieve 50% inhibition (IC50) was determined with a four-parameter logistic dose response equation.

| Structure (SMILES) | IC50 [1] | IC50 [2] |
| --- | --- | --- |
| C[C@H](Nc1nc(Cl)nn2c([C@@H]3O[C@H](COP(=O)(O)CP(=O)(O)O)[C@@H](O)[C@H]3O)cnc12)c1cncc(F)c1 [Compound 33, (((((2R,3S,4R,5S)-5-(2-chloro-4-(((S)-1-(5-fluoropyridin-3-yl)ethyl)amino)imidazo[2,1-f][1,2,4]triazin-7-yl)-3,4-dihydroxytetrahydrofuran-2-yl)methoxyxhydroxy)phosphoryl)methyl)phosphonic acid] | < 10 nM | 1 to 9.9 nM |
| O=P(O)(O)CP(=O)(O)OC[C@H]1O[C@@H](c2cnc3c(N4CCCC45CCCC5)nc(Cl)nn23)[C@H](O)[C@@H]1O [Compound 40, (((((2R,3S,4R,1S)-5-(2-chloro-4-(1-azaspiro[4.4]nonan-1-yl)imidazo[2,1-f][1,2,4]triazin-7-yl)-3,4-dihydroxytetrahydrofuran-2-yl)methoxy)(hydroxy)phosphoryl)methyl)phosphonic Acid] | < 10 nM | 1 to 9.9 nM |
| CN(c1nc(Cl)nn2c([C@@H]3O[C@H](COP(=O)(O)CP(=O)(O)O)[C@@H](O)[C@H]3O)cnc12)C1CCc2ccccc21 (stereo partly drawn) [Compound 29, (((((2R,3S,4R,1S)-5-(2-chloro-4-(((R)-2,3-dihydro-1H-inden-1-yl)(methyl)amino)imidazo[2,1-f][1,2,4]triazin-7-yl)-3,4-dihydroxytetrahydrofuran-2-yl)methoxy)(hydroxy)phosphoryl)methyl)phosphonic Acid] | < 10 nM | < 1 nM |
| COC1CCC(Nc2nc(Cl)nn3c([C@@H]4O[C@H](COP(=O)(O)CP(=O)(O)O)[C@@H](O)[C@H]4O)cnc23)C1 (stereo partly drawn) [Compound 23, (((((2R,3S,4R,1S)-5-(2-chloro-4-((3-methoxycyclopentyl)amino)imidazo[2,1-f][1,2,4]triazin-7-yl)-3,4-dihydroxytetrahydrofuran-2-yl)methoxy)(hydroxy)phosphoryl)methyl)phosphonic acid] | < 10 nM | < 1 nM |
| C[C@@H](Nc1nc(Cl)nn2c([C@@H]3O[C@H](COP(=O)(O)CP(=O)(O)O)[C@@H](O)[C@H]3O)cnc12)c1ccccc1 [Compound 34, [({[(2R,3S,4R,5S)-5-(2-chloro-4-{[(1R)-1-phenylethyl]amino}imidazo[2,1-f][1,2,4]triazin-7-yl)-3,4-dihydroxyoxolan-2-yl]methoxy}(hydroxy)phosphoryl)methyl]phosphonic Acid] | < 10 nM | 1 to 9.9 nM |
| O=P(O)(O)CP(=O)(O)OC[C@H]1O[C@@H](c2cnc3c(NC4CCCC4)ncnn23)[C@H](O)[C@@H]1O [Compound 1, (((((2R,3S,4R,5S)-5-(4-(cyclopentylamino)imidazo[2,1-f][1,2,4]triazin-7-yl)-3,4-dihydroxytetrahydrofuran-2-yl)methoxyxhydroxy)phosphoryl)methyl)phosphonic acid] | < 10 nM | < 1 nM |
| O=P(O)(O)CP(=O)(O)OC[C@H]1OC(c2cnc3c(N4CCCC4)nc(Cl)nn23)[C@@H](F)[C@@H]1O (stereo partly drawn) [Compound 73, (((((2R,3R,4S)-5-(2-chloro-4-(pyrrolidin-1-yl)imidazo[2,1-f][1,2,4]triazin-7-yl)-4-fluoro-3-hydroxytetrahydrofuran-2-yl)methoxy)(hydroxy)phosphoryl)methyl)phosphonic Acid] | 10 to 99 nM | 1 to 9.9 nM |
| CN(c1nc(Cl)nn2c([C@@H]3O[C@H](COP(=O)(O)CP(=O)(O)O)[C@@H](O)[C@H]3O)cnc12)C1CCCC1 [Compound 8, (((((2R,3S,4R,1S)-5-(2-chloro-4-(cyclopentyl(methyl)amino)imidazo[2,1-f][1,2,4]triazin-7-yl)-3,4-dihydroxytetrahydrofuran-2-yl)methoxy)(hydroxy)phosphoryl)methyl)phosphonic acid] | < 10 nM | < 1 nM |
| O=P(O)(O)CP(=O)(O)OC[C@H]1O[C@@H](c2cnc3c(NC4CCOCC4)nc(Cl)nn23)[C@H](O)[C@@H]1O [Compound 47, (((((2R,3S,4R,1S)-5-(2-chloro-4-((tetrahydro-2H-pyran-4-yl)amino)imidazo[2,1-f][1,2,4]triazin-7-yl)-3,4-dihydroxytetrahydrofuran-2-yl)methoxy)(hydroxy)phosphoryl)methyl)phosphonic Acid] | < 10 nM | 1 to 9.9 nM |
| O=P(O)(O)CP(=O)(O)OC[C@H]1O[C@@H](c2cnc3c(NC4CCOC4)nc(Cl)nn23)[C@H](O)[C@@H]1O (stereo partly drawn) [Compound 14, [({[(2R,3S,4R,5S)-5-[2-chloro-4-(oxolan-3-ylamino)imidazo[2,1-f][1,2,4]triazin-7-yl]-3,4-dihydroxyoxolan-2-yl]methoxy}(hydroxy)phosphoryl)methyl]phosphonic acid] | < 10 nM | < 1 nM |
